The results in this text go back to patent publication US20220218679A1, “NOVEL COMPOUNDS AND PHARMACEUTICAL COMPOSITIONS THEREOF FOR THE TREATMENT OF INFLAMMATORY DISORDERS” (Galapagos NV, priority 2019, published 2022).

One data set deals with Mouse Hepatocyte. Kind of data set: Metabolic stability in hepatocytes (mouse). The data set is classed as in vitro ADME. Conditions: 1 μM test compound, cryopreserved mouse hepatocytes. The protocol:
4.6. Metabolic Stability in Hepatocytes
The aim of this assay is to determine the metabolic stability of the compound in hepatocytes (cryopreserved) of different species. Low hepatocyte stability may result in the formation of unwanted metabolites, high clearance, and therefore is not desirable.
The decrease in parent was assessed by measuring the percentage remaining by LC-MS/MS analysis.
A 10 mM stock solution of test compound in DMSO was first diluted in DMSO to 3 mM, and then in modified Krebs-Henseleit buffer (Sigma, K3753) to 5 μM. This compound dilution was added to a suspension of pooled cryopreserved hepatocytes (BioreclamationIVT) at 37° C. under gentle shaking.
Final reaction conditions were: 1 μM of test compound, 0.03% DMSO, 0.5 million viable hepatocytes/mL, and 75 μL incubation volume.
Testosterone (1 μM) and 7-hydroxycoumarin (1 μM) were used, respectively as phase I and phase II metabolic reaction controls.
After 0, 10, 20, 45, 90, 120 and 180 min of incubation, the reaction was terminated with 225 μL of MeCN:MeOH (2:1) containing 100 ng/mL of diclofenac as analytical internal standard. Samples were mixed, centrifuged and the supernatant analyzed by LC-MS/MS.
The instrument responses (ratios of test compound and internal standard peak areas) were referenced to the zero time point samples (considered as 100%) in order to determine the percentage of compound remaining.
Plots of percentage compound remaining were used to determine the intrinsic clearance in the hepatocyte incubations using the following equations:
Scaled Clint [L/h/kg]=Clint[μL/min/10^6 cells]*#(10^6) cells/g liver*60*( 1/10^6) Scaled Clint unbound [L/h/kg]=Clint [L/h/kg]/Fu,inc where: fu,inc equals hepatocyte binding, derived from microsomal binding (fu,mic) by following equation: […]

Data set [1] deals with CL097 triggered TNFα release in human whole blood. The experiment in a line: Ex vivo human TNFα release inhibition (human whole blood assay). The following applies: Homo sapiens, CL097 2 μg/mL, 3 h 30 min at 37° C. The data set is classed as cell-based. The source says:
4.10.1. Ex Vivo Human IFNα and TNFα Release Inhibition (Human Whole Blood Assay)
The aim of the assay is to evaluate the activity of compounds of the invention on the activated TLR/IRAK-4 pathway in an ex vivo human whole blood setting. Toll-like receptors (TLRs) are pattern recognition receptors that recognize a wide variety of microbial molecules, called pathogen-associated molecular patterns (PAMPs). Human TLR7 and TLR8 recognize imidazoquinoline compounds (e.g., CL097—CAS n #1026249-18-2) and single stranded RNAs as their natural ligands. Activation of TLRs leads to the production of several cytokines (e.g., IFNα, TNFα, IL-8, IL-6) by the TLR agonist-treated cells, whereas IRAK4 leads to the production of IFNα. Cytokine release is used as readout in this assay and represents a measure for the level of inhibition of the TLR/IRAK-4 pathway by the tested compound. It should be noted that in the context of the complete organism, other sources for these cytokines exist that are not dependent on the TLR/IRAK-4 pathway, such as e.g., macrophages (upon activation of the Fcγ receptor (Yan et al., 2012)) or T cells (upon activation of the T cell receptor (Brehm et al., 2005)).
4.10.1.1. Experimental Design
Blood was collected from healthy volunteers into lithium heparin tubes by venipuncture, then gently inverted several times to prevent clotting and incubated for at least 15 min at 37° C. on a rocking mixer shaker. Then, 100 μL of blood was dispensed into polypropylene 96-well microplate and pre-incubated in duplicate with 0.3% DMSO or test compound at different concentrations (from 30 to 0.01 μM, 3-fold dilutions to get 0.3% DMSO at the final) for 15 min at 37° C. After this pre-incubation, blood was triggered with CL097 (2 μg/mL from 1 mg/mL solution in water; InvivoGen, tlrl-c97) for 3 h 30 min at 37° C. Microtubes were centrifuged at 5000×g for 10 min at 4° C. and approximately 40 μL of plasma were collected into a polystyrene 96-well plate. Plasma could be analyzed freshly, within 30 min after triggering, or frozen at −80° C. Finally, the quantification of TNFα and IFNα were performed in the plasma using AlphaLISA Kit for TNFα and IFNα according to the manufacturer's instructions and read on the Ensight (PerkinElmer).
For each blood sample, the TNFα concentrations of the samples were determined from the fit. Data were then expressed a percentage of inhibition PIN for each replicate using the formula:
With mean TNFα with CL097=mean TNFα concentration of replicate samples triggered with CL097; TNFαsample1=TNFα concentration of sample 1; mean TNFα with vehicle=mean TNFα concentration of replicate samples treated with vehicle.
Curve fitting for pIC50 determination were generated using mean PIN±sem. Graphs and pIC50 calculations were derived using Prism 5.03 software (GraphPad).

pIC50: −log10 of the molar value.

With `CCOc1cn2nc(CCC(C)(C)O)cc2cc1NC(=O)c1cccn(C)c1=O` [Compound 18, N-[6-ethoxy-2-(3-hydroxy-3-methyl-butyl)pyrazolo[1,5-a]pyridin-5-yl]-1-methyl-2-oxo-pyridine-3-carboxamide], the “Mouse Hepatocyte stability (Perc. remaining at 90 min)” value in the data set with Mouse Hepatocyte stood at 93 Perc. In addition, in data set [1], the negative logarithm of the IC50 (pIC50) – broadly, the negative decadic logarithm of the IC50, by convention in mol/L – was 6.00 to 6.30.

Consider `COc1cn2nc(CCC(C)(C)O)cc2cc1NC(=O)c1cccn(C2CCC2)c1=O` [Compound 21, 1-cyclobutyl-N-[2-(3-hydroxy-3-methyl-butyl)-6-methoxy-pyrazolo[1,5-a]pyridin-5-yl]-2-oxo-pyridine-3-carboxamide], for which the “Mouse Hepatocyte stability (Perc. remaining at 90 min)” value in the data set on Mouse Hepatocyte was found to be 49.45 Perc. The same compound showed a negative logarithm of the IC50 (pIC50) in data set [1] of 5.30 to 6.00.
